In patent US20230115945A1, “AMINOPYRIMIDINE COMPOUNDS” (TYRA BIOSCIENCES, INC., priority 2019, published 2023) one finds Kd, IC50 and GI50 data, which are given here for eight compounds.

A word on the Kd: it is the free concentration of one partner at which half of the binding sites on the other are occupied at equilibrium, for simple one-to-one binding. Lower therefore signals a tighter complex. One may read the IC50 as the concentration needed to halve the response being measured.

Experiment [1] deals with T1, FGFR3 (V555M) (Homo sapiens, UniProt P22607, V555M).
T1 construct: made in house; host or cells: E. coli host derived from BL21, infected with T7 phage
T1 sequence (P22607 23-806 V555M): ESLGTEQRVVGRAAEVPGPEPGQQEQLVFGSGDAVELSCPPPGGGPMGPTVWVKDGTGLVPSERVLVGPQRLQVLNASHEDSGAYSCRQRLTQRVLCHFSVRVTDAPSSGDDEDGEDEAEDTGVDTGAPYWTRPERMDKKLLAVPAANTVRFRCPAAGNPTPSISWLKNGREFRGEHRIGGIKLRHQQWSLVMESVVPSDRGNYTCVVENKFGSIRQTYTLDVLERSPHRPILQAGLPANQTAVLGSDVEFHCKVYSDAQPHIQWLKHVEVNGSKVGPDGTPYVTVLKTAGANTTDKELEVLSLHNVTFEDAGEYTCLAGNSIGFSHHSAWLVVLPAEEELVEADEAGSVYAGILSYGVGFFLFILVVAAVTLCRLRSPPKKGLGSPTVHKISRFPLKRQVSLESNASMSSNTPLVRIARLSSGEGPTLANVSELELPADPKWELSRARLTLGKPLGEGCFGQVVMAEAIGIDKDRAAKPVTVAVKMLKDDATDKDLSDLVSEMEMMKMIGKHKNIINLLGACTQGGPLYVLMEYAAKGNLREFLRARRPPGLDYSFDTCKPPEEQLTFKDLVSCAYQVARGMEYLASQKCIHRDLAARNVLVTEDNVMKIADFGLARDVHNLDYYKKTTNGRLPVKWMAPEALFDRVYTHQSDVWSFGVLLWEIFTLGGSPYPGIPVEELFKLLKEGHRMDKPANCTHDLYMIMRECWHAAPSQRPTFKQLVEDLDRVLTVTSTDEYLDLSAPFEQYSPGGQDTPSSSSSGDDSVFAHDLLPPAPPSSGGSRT
Put plainly: Kinase binding assay (Kd), FGFR3 (V555M). The conditions noted are these: 11-point 3-fold dilution, qPCR readout. Summed up:
(§1)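 Kinase levels in bead eluates were read by qPCR after test compounds competed with an immobilized affinity ligand for T7 phage-expressed kinase. Binding ran 1 h at room temperature, and Kd values were fitted from 11-point dose–response curves with Hill slope set to −1.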
For orientation: Quantitative PCR measures a nucleic acid by following its amplification.

In experiment [2] the test system is KG-1 cells (Acute Myeloid Leukemia, FGFR1OP2-FGFR1 fusion). Briefly: Cancer cell line cell viability assay, KG-1. The experiment is classed as cell-based. The conditions noted are these: Homo sapiens, 72 hours, Cell Titer-Glo 2.0, read-out: Cancer Cell Viability Assays KG1 (IC50 nM). From the text:
(§2) To detect the change of intracellular ATP by Cell Titer-Glo® and to evaluate the inhibitory effect of the compounds on cancer cell lines by determining the in vitro IC50 value of the compounds.
(§3) Cell Titer-Glo® 2.0 Luminescent cell viability assay reagent was purchased from Promega (Madison, Wis.). RT112/84, SNU-16, and KG-1 cell lines were purchased from American Type Culture Collection (Manassas, Va.). UM-UC-14 cell line was purchased from Sigma (St. Louis, Mo.). RT112/84, UM-UC-14, SNU-16, and KG-1 cells were cultured in RPMI1640 media supplemented with 10% fetal bovine serum. Cultures were maintained at 37° C. in a humidified atmosphere of 5% CO2 and 95% air.
(§4) Cell Viability Assay Procedure: Cells were plated in 96-well clear bottom/white plates (Corning #3903) at 10,000 cells/well in 100 μl of media, incubated overnight. The next day, test compound DMSO stock solutions were made at 10 mM and 2 μM final concentration. Compounds were then added to cells in a 9-dose, 10-fold dilution series starting at 30 μM with an HP 300e Digital Dispenser (each dose was applied in triplicate). DMSO was backfilled to each well up to 301 nL total volume of test compound+DMSO, and a total of 301 nL DMSO was added to a control/no test compound well in triplicate. The cells in cell culture plates were incubated with the compounds at 37° C. and 5% CO2 for 72 hours. Then 50 μl of Cell Titer Glo 2.0 reagent was added to each well of the cell culture plates. The contents were covered from light and mixed on an orbital shaker at room temperature for 10 min. Luminescence was recorded by a Synergy H1 Microplate Reader (Biotek, Winooski, Vt.). Cells were assessed as a percentage of DMSO only treated control cells. Curves were plotted and IC50 values were calculated using the GraphPad Prism 8 program based on a sigmoidal dose-response equation (4 parameter).

The target in experiment [3] is T2, FGFR1 (Homo sapiens, UniProt P11362).
T2 construct: made in house; host or cells: E. coli host derived from BL21, infected with T7 phage
T2 sequence (P11362 22-822): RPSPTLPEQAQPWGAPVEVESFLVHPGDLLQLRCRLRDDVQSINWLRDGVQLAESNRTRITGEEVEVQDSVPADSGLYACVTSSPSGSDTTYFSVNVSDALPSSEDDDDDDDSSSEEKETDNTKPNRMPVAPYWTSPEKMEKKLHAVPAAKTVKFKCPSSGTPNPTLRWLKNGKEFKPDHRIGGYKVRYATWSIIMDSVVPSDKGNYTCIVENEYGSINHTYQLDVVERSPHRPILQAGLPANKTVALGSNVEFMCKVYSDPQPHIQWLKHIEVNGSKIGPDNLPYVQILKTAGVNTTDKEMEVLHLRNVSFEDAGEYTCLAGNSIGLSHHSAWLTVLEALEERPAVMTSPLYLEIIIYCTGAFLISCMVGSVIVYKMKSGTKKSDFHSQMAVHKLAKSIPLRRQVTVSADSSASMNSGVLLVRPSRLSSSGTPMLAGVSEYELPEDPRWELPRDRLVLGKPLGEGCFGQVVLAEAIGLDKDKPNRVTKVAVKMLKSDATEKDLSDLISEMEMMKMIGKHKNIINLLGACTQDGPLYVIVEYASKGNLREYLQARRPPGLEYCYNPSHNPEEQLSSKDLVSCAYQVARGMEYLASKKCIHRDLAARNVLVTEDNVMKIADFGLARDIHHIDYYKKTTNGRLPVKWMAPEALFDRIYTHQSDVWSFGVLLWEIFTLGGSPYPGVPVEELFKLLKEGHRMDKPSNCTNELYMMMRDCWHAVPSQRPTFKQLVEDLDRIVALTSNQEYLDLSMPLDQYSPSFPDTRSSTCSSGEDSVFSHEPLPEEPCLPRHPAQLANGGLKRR
Briefly: Kinase binding assay (Kd), FGFR1. To be noted: 11-point 3-fold dilution, qPCR readout. Summed up:
as §1

For experiment [4], the system named is UM-UC-14 cells (Bladder Cancer, FGFR3(S249C)). Put plainly: Cancer cell line cell viability assay, UM-UC-14. The class given is cell-based. The conditions noted are these: UMUC14; 72 hours, Cell Titer-Glo 2.0; read-out: Cancer Cell Viability Assays UM-UC-14 (IC50 nM).
Description: as §2, §3, §4

The target of experiment [5] is T3, FGFR1-BCR Ba/F3 cells (Homo sapiens, UniProt P11362).
T3 construct: Ba/F3 FGFR1; FGFR1-BCR; Advanced Cellular Dynamics, (Seattle, WA); fused on or other part: P11274 (Breakpoint cluster region protein)
T3 sequence (P11362 whole entry, change not shown, the tested form may be a part): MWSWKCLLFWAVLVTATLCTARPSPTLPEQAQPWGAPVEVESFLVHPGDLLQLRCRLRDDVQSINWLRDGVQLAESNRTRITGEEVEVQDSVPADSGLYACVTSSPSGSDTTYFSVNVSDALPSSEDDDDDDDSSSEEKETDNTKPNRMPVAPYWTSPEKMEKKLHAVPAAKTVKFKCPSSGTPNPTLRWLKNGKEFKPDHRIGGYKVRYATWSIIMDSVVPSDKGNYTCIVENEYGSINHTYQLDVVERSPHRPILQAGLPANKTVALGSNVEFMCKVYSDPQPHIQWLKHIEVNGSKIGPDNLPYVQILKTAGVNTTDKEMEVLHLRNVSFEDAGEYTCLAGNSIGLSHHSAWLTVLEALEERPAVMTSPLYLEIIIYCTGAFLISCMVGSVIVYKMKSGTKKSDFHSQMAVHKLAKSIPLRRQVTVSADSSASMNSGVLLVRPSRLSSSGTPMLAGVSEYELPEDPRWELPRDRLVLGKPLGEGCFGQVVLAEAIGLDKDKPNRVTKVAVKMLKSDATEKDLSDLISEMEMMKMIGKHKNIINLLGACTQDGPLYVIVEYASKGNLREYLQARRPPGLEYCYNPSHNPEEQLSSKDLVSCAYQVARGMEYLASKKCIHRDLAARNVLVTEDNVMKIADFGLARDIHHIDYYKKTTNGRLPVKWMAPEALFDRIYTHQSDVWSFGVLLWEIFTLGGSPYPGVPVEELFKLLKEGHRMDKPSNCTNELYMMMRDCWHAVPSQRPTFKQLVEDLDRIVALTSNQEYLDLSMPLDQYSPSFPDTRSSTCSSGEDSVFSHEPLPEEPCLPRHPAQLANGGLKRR
Briefly: Ba/F3 cell viability assay, FGFR1. The class given is cell-based. The conditions noted are these: FGFR1-BCR Ba/F3, 48 hours, Cell Titer-Glo 2.0; read-out: Ba/F3 Cells FGFR1 (IC50 nM).
Description: Experimental Purpose: Recombinant kinase fusions are transduced into parental Ba/F3, which becomes dependent upon this constitutive kinase activity for IL3-independent survival. Inhibition of kinase activity leads to cell death, which is monitored using CellTiter-Glo® 2.0 (Promega) which measures intracellular ATP concentration that in turn serves as a marker for viability. FGFR1-BCR Ba/F3 and FGFR3-BAIAP2L1 Ba/F3 were obtained from Advanced Cellular Dynamics (Seattle, Wash.)
Cell Viability Assay Procedure: Cell Titer-Glo® 2.0 Luminescent cell viability assay reagent was purchased from Promega (Madison, Wis.). FGFR1-BCR Ba/F3 and FGFR3-BAIAP2L1 Ba/F3 cells were cultured in RPMI1640 media supplemented with 10% fetal bovine serum. Cultures were maintained at 37° C. in a humidified atmosphere of 5% CO2 and 95% air.
as §4, with “Cells” for “Cell Viability Assay Procedure: Cells”, “48” for “72”

Take `C=CC(=O)Nc1ccc2c(c1)c(C)cn2-c1nc(Nc2ccc(N=S(C)(C)=O)c(F)c2)ncc1C#N` [Example 62, N-[1-[5-Cyano-2-[4-[[dimethyl(oxo)-λ^6-sulfanylidene]amino]-3-fluoro-anilino]pyrimidin-4-yl]-3-methyl-indol-5-yl]prop-2-enamide]: the Kd in experiment [1] turned out to be 11 nM; in experiment [3] it was 79 nM. The half-maximal inhibitory concentration (IC50) in experiment [2] amounted to 17 nM; in experiment [4], 152 nM. In experiment [5], the GI50 came out at 9 nM.

For `C=CC(=O)Nc1ccc2c(-c3nc(Nc4ccc(N=S(C)(C)=O)cc4)ncc3Cl)cn(C)c2c1` [Example 92, N-[3-[5-chloro-2-[4-[[dimethyl(oxo)-λ^6-sulfanylidene]amino]anilino]pyrimidin-4-yl]-1-methyl-indol-6-yl]prop-2-enamide], the Kd in experiment [1] came out at 3 nM; in experiment [3], 63 nM. Besides, the figures for the IC50 in experiment [2] and in experiment [4] were 5 nM and 10 nM, respectively. Moreover, the GI50 in experiment [5] came to 1 nM.

As to `C=CC(=O)Nc1ccc2c(ccn2-c2nc(Nc3ccc(S(C)(=N)=O)cc3)ncc2Cl)c1` (stereo not shown) [Example 70, N-[1-[5-Chloro-2-[4-(methylsulfonimidoyl)anilino]-pyrimidin-4-yl]indol-5-yl]prop-2-enamide], the dissociation constant Kd in experiment [1] is 9.2 nM; in experiment [3], 230 nM. Further, the results for the half-maximal inhibitory concentration (IC50) in experiment [2] and in experiment [4] were 9 nM and 34 nM, respectively. The GI50 in experiment [5] came out at 8 nM.

For the compound `C=CC(=O)Nc1ccc2c(c1)c(C)cn2-c1nc(Nc2ccc(N=S(C)(C)=O)c(F)c2)ncc1Cl` [Example 60, N-[1-[5-Chloro-2-[4-[[dimethyl(oxo)-λ^6-sulfanylidene]amino]-3-fluoro-anilino]pyrimidin-4-yl]-3-methyl-indol-5-yl]prop-2-enamide], the Kd in experiment [1] stood at 1.7 nM; in experiment [3] it was 14 nM. In addition, the IC50 turned out to be 4 nM in experiment [2] and 6 nM in experiment [4]. The GI50 in experiment [5] came to 2 nM.

As for `C=CC(=O)Nc1ccc2c(c1)c(C)cn2-c1nc(Nc2ccc(N=S(C)(C)=O)cc2)ncc1Cl` [Example 61, N-[1-[5-Chloro-2-[4-[[dimethyl(oxo)-λ^6-sulfanylidene]amino]anilino]pyrimidin-4-yl]-3-methyl-indol-5-yl]prop-2-enamide], the Kd was 2 nM in experiment [1] and 21 nM in experiment [3]. The values for the IC50 in experiment [2] and in experiment [4] were 6 nM and 12 nM, respectively. Further, the GI50 in experiment [5] stood at 2 nM.

For `C=CC(=O)Nc1ccc2c(ccn2-c2nc(Nc3ccc(N=S(C)(C)=O)cc3)ncc2Cl)c1` [Example 66, N-[1-[5-chloro-2-[4-[[dimethyl(oxo)-λ^6-sulfanylidene]amino]anilino]-pyrimidin-4-yl]indol-5-yl]prop-2-enamide], the equilibrium dissociation constant (Kd) is 5.3 nM in experiment [1] and 61 nM in experiment [3]. For the same compound, the half-inhibitory concentration (IC50) in experiment [2] is 20 nM; in experiment [4], 34 nM. The GI50 in experiment [5] is 6 nM.

For `C=CC(=O)Nc1ccc2c(c1)c(C)cn2-c1nc(Nc2ccc(N=S(C)(C)=O)c(F)c2)ncc1C` [Example 63, N-[1-[2-[4-[[dimethyl(oxo)-λ^6-sulfanylidene]amino]-3-fluoro-anilino]-5-methyl-pyrimidin-4-yl]-3-methyl-indol-5-yl]prop-2-enamide], the Kd worked out at 1 nM in experiment [1] and 10 nM in experiment [3]. In addition, the half-maximal inhibitory concentration (IC50) in experiment [2] came to 1 nM; in experiment [4], 3 nM. Further, the GI50 in experiment [5] came out at 1 nM.

`C=CC(=O)Nc1ccc2c(c1)c(C)cn2-c1nc(Nc2ccc(N=S(C)(C)=O)c(OC)c2)ncc1Cl` [Example 64, N-[1-[5-Chloro-2-[4-[[dimethyl(oxo)-λ^6-sulfanylidene]amino]-3-methoxy-anilino]pyrimidin-4-yl]-3-methyl-indol-5-yl]prop-2-enamide]: the Kd in experiment [1] came to 1 nM; in experiment [3], 5 nM. In addition, the figures for the IC50 in experiment [2] and in experiment [4] were 1 nM and 3 nM, respectively. Moreover, in experiment [5], the GI50 was determined as 3 nM.
